Measurements published in patent US20080015222A1, “New Heterocyclic Amides” (ASTRAZENECA AB, priority 2004, published 2008).

Target: T1, hVR1 (Homo sapiens, UniProt Q8NER1)
T1 construct: expressed in transfected cells
Experiment: hVR1 FLIPR (Fluorometric Image Plate Reader) screening assay, IC50 determination
Type: cell-based
Details: CHO cells stably expressing hVR1
Description: 1. hVR1FLIPR (Fluorometric Image Plate Reader) Screening Assay
Transfected CHO cells, stably expessing hVR1 (15,000 cells/well) are seeded in 50 ul media in a black clear bottom 384 plate (Greiner) and grown in a humidified incubator (37° C., 2% CO2), 24-30 hours prior to experiment.
Subsequently, the media is removed from the cell plate by inversion and 2 μM Fluo-4 is added using a multidrop (Labsystems). Following the 40 minutes dye incubation in the dark at 37° C. and 2% CO2, the extracellular dye present is washed away using an EMBLA (Scatron), leaving the cells in 40 ul of assay buffer (1×HBSS, 10 mM D-Glucose, 1 mM CaCl2, 10 mM HEPES, 10×7.5% NaHCO3 and 2.5 mM Probenecid).
FLIPR Assay—IC50 Determination Protocol
For IC50 determinations the fluorescence is read using FLIPR filter 1 (em […]). A cellular baseline recording is taken for 30 seconds, followed by a 20 μl addition of 10, titrated half-log concentrations of the test compound, yielding cellular concentration ranging from 3 μM to 0.1 nM. Data is collected every 2 seconds for a further 5 minutes prior to the addition of a VR1 agonist solution: either 50 nM solution of capsaicin or MES (2-[N-morpholino]ethanesulfonic acid) buffer (pH 5.2), by the FLIPR pipettor. The FLIPR continues to collect data for a further 4 minutes. Compounds having antagonistic properties against the hVR1 will inhibit the increase in intracellular calcium in response to the capsaicin addition. This consequently leading to a reduction in fluorescence signal and providing a reduced fluorescence reading, compared with no compound, buffer controls. Data is exported by the FLIPR program as a sum of fluorescence calculated under the curve upon the addition of capsaicin. Maximum inhibition, Hill slope and IC50 data for each compound are generated.

[1] = agonist low pH (MES buffer pH 5.2)

T1 sequence (Q8NER1 whole entry): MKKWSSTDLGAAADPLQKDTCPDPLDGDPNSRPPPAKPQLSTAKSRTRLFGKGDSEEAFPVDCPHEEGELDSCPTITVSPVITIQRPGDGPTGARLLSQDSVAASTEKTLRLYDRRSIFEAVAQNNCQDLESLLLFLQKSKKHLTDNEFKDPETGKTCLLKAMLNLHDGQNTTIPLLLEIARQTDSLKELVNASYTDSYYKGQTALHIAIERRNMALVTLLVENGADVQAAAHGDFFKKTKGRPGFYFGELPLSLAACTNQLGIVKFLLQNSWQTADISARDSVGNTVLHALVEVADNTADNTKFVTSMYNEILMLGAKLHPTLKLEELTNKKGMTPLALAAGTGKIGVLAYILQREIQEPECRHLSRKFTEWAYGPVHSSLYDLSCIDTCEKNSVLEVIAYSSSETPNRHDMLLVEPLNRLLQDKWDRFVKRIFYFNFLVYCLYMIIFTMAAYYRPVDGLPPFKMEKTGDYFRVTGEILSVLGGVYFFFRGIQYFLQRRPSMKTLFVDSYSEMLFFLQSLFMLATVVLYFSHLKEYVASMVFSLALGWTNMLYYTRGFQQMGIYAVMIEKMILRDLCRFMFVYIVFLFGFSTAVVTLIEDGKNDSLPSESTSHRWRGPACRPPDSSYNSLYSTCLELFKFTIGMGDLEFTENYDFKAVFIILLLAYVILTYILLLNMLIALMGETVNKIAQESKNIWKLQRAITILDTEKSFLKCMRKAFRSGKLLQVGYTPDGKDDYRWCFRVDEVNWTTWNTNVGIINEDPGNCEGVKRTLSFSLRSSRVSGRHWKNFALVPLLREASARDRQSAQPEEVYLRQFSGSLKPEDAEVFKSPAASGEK

| Structure (SMILES) | IC50 (agonist capsaicin (50 nM)) [nM] | IC50 [1] [nM] |
| --- | --- | --- |
| COCCOc1cc(NC(=O)Cn2cnc3cccc([N+](=O)[O-])c32)cc(OC)c1 [Example 10, N-[3-Methoxy-5-(2-methoxyethoxy)phenyl]-2-(7-nitro-1H-benzimidazol-1-yl)acetamide] | 22 | 45 |
| O=C(Cn1cnc2cccc([N+](=O)[O-])c21)Nc1cc(F)c(F)c(F)c1 [Example 14, 2-(7-Nitro-1H-benzimidazol-1-yl)-N-(3,4,5-trifluorophenyl)acetamide] | 48 | 108 |
| COc1cc(NC(=O)Cn2cnc3cccc(C(C)=O)c32)cc(C(F)(F)F)c1 [Example 32, 2-(7-Acetyl-1H-benzimidazol-1-yl)-N-[3-methoxy-5-(trifluoromethyl)phenyl]acetamide] | 77 | 53 |
| COc1cc(NC(=O)Cn2cnc3cccc(C(C)=O)c32)cc(OC)c1 [Example 35, 2-(7-Acetyl-1H-benzimidazol-1-yl)-N-(3,5-dimethoxyphenyl)acetamide] | 518 | 508 |
